Source: US20210069295A1, “GALECTINS CONTROL MTOR IN RESPONSE TO ENDOMEMBRANE DAMAGE AND PROVIDE A MECHANISM AND TARGET FOR THE TREATMENT OF AUTOPHAGY-RELATED DISEASES” (STC. UNM, priority 2017, published 2021)
Peptide text beside a SMILES is read from it.

System: APEX2-Gal8
Assay: APEX2-Gal8 proximity biotinylation LC/MS/MS proteomic analysis in HEK293T cells
Type: cell-based
Details: 100 μM GPN 1 h vs full medium
Procedure: HEK293T cells transfected with pJJiaDEST-APEX2 or pJJiaDEST-APEX2-Gal8 were incubated with 100 μM GPN (Cayman Chemicals) in full medium for 1 h (confluence of cells remained at 70-80%). Cells were next incubated in 500 μM biotin-phenol (AdipoGen) in full medium for the last 30 min of GPN incubation. A 1 min pulse with 1 mM H2O2 at room temperature was stopped with quenching buffer (10 mM sodium ascorbate, 10 mM sodium azide and 5 mM Trolox in Dulbecco's Phosphate Buffered Saline (DPBS)). All samples were washed twice with quenching buffer, and twice with DPBS.
For LC-MS/MS analysis, cell pellets were lysed in 500 μL ice-cold lysis buffer (6 M urea, 0.3 M Nacl, 1 mM EDTA, 1 mM EGTA, 10 mM sodium ascorbate, 10 mM sodium azide, 5 mM Trolox, 1% glycerol and 25 mm Tris/HCl [PH 7.5]) for 30 min by gentle pipetting. Lysates were clarified by centrifugation and protein concentrations determined as above. Streptavidin-coated magnetic beads (Pierce) were washed with lysis buffer. 3 mg of each sample was mixed with 100 μL of streptavidin bead. The suspensions were gently rotated at 4° C. for overnight to bind biotinylated proteins. The flowthrough after enrichment was removed and the beads were washed in sequence with 1 mL IP buffer (150 mM NaCl, 10 mM Tris-HCl pH8.0, 1 mM EDTA, 1 mM EGTA, 1% Triton X-100) twice; 1 mL 1M KCl; 1 mL of 50 mM Na2CO3; 1 mL 2M Urea in 20 mM 1Tris HCl pH8; 1 mL IP buffer. Biotinylated proteins were eluted, 5-10% of the sample processed for Western Blot and 90-95% of the sample processed for mass spectrometry.
Digested peptides were analyzed by LC-MS/MS on a Thermo Scientific Q Exactive Plus Orbitrap Mass spectrometer in conjunction Proxeon Easy-nLC II HPLC (Thermo Scientific) and Proxeon nanospray source. […]
Tandem mass spectra were extracted by Proteome Discoverer version 2.2. […] All MS/MS samples were analyzed using Sequest-HT (XCorr Only)(Thermo Fisher Scientific, San Jose, Calif., USA; in Proteome Discoverer 2.2.0.388). […] Precursor intensity was determined using Proteome Discoverer 2.2 using the Minor Feature detector with the default options. […]

NCC(=O)N[C@@H](Cc1ccccc1)C(=O)Nc1ccc2ccccc2c1 [GPN, glycyl-L-phenylalanine 2-naphththylamide] (HELM PEPTIDE1{G.F.[c1ccc2cc(N[*:1])ccc2c1]}$$$$V2.0)
> 100 fold: decrease in spectral counts of mTOR proximal to APEX2-Gal8 | increase in MS signal intensity of peptide precursor ions of LAMTOR1/p18, SLC38A9 and RagA/B | increase in spectral counts of SLC38A9 and RagA/B proximal to APEX2-Gal8
